Type in all cases: cell-based
Assay [1] deals with sensory epithelial region of postnatal day 3 OCs. The assay is described as follows: EdU-labeling of mitotically-active cells in postnatal organ of Corti. The settings on record: 0.5 or 2.0 μM, 72 hours, vs vehicle. The procedure:
FIG. 21 depicts EdU-labeling of mitotically-active cells in the postnatal organ of Corti in response to Tideglusib treatment. Postnatal day 3 OCs were harvested and cultured in vitro for 24 hours prior to the addition of culture media containing 10 μM EdU in the presence of either vehicle alone (DMSO) or tideglusib (TIDE) at a final concentration of 0.5 or 2.0 μM. Organotypic cultures were cultured continuously in the presence of these agents for 72 hours prior to fixation and visualization of EdU-positive nuclei as described above. Images of the middle turn of the OC from each group are shown. Brackets denote the sensory epithelial region in each image.
A targeted pilot experiment was conducted in which postnatal OCs were cultured continuously for 72 hours in the presence of EdU and either tideglusib or vehicle alone to assess whether the GSK3 inhibitor was capable of inducing a mitotic response in the sensory epithelial region of the OC. […] Follow-up analyses will indicate whether this tideglusib-induced proliferative response in the OC involves supporting cells, hair cells, or both, using cell type-specific markers.

Assay [2] concerns postnatal (P3) murine (CD1) OC explants. The assay is described as follows: siHes1 NPs with Tideglusib in neomycin-ablated OC explants. The procedure:
Postnatal (P3) murine (CD1) OC explants were exposed to the ototoxic aminoglycoside, neomycin, for 24 h and then treated with 60 nM siHes1 NP alone; the GSK3 inhibitor, Tideglusib (TIDE), alone (2 μM); or a combination of 60 nM siHes1 NP with escalating doses of Tideglusib (0.5, 2, or 10 μM) for 6d prior to fixation and immunolabeling against the HC-specific marker, Myo7a. Middle turn as fixed reference among images shown.
NEO-ablated OCs were treated with a suboptimal (60 nM) dose of siHes1 NPs either alone or in combination with escalating doses of TIDE. […] The sustained release profile of siHes1 NPs mimics staged application of the two therapeutics.
Applicants hypothesized that the delayed, yet sustained, release of siHes1 from biocompatible PLGA NPs would recapitulate the therapeutic attributes of staged application of a GSK3 inhibitor and siRNA against Hes1 when the two drugs were co-administered. To test this hypothesis, a sub-maximal efficacious dose (60 nM) of siHes1 NPs with escalating doses (0.5, 2, and 10 μM) of the GSK3I, tideglusib, in order to have sufficient experimental margin were used to assess a regenerative dose-response profile in organotypic cultures of neomycin (NEO)—exposed organs of Corti (OCs). Using this paradigm, NEO-ablated OCs were subsequently cultured with siHes1 NPs alone or in combination with Tideglusib over the course of six days prior to fixation and immunohistological analyses.

In assay [3] the test system is organotypic cultures of murine OCs. The assay is described as follows: Hair cell counts in neomycin-damaged OC cultures treated with TIDE and/or siHES1 lipofection complexes. To be noted: neomycin 0.7 mM 24 h; 10.0 μM TIDE, siHES1 20 nM lipofection complexes (FIG. 22). The procedure:
FIG. 22 depicts hair cells (Myo7a+ cells) quantified from the mid-apical and middle regions of organotypic cultures of murine OCs following a 24 h exposure to neomycin (0.7 mM) and subsequent recovery in the presence or absence of the GSK3 inhibitor Tideglusib (TIDE) and/or siHES1 (20 nM) lipofection complexes (JetSI, Polyplus).
FIG. 23 depicts hair cells (Myo7a+ cells) quantified from the mid-apical and middle regions of organotypic cultures of murine OCs following a 24 h exposure to neomycin (0.7 mM) and subsequent recovery in the presence or absence of the GSK3 inhibitor Tideglusib (TIDE) and/or siHES1 (20 nM) lipofection complexes (JetSI, Polyplus).
FIG. 25 depicts hair cells (Myo7a+ cells) quantified from the mid-apical, middle, and mid-basal regions of organotypic cultures of murine OCs following a 24 h exposure to neomycin (0.7 mM) and subsequent recovery in the presence or absence of the GSK3 inhibitor Tideglusib (TIDE) and/or siHES1 (20 nM) lipofection complexes (JetSI, Polyplus). One set of NEO-ablated OCs were treated with TIDE then siHes1 in the presence of 2 ng/mL FGF-2 as a media supplement with the aim of potentially enhancing the effects of Tideglusib.
The protocol described above for BIO is used, substituting the addition of BIO for 10.0 μM Tideglusib (TIDE). A third treatment group is added, where Tideglusib is included in the culture medium after siHes1, parallel to the other protocols: on P4 or P5 (depending on whether there was an ototoxic insult to simulate hair cell loss) the control media is added with or without the inclusion of 10.0 μM TIDE; on P7 siHes1 is added in the presence of absence of TIDE; and on P9 10.0 μM Tideglusib is included in the media for a subset of cultures. On P11, all media is replaced with fresh media without any therapeutics. On P12, the tissues are fixed for immunolabeling. An example of comparative analyses from this treatment paradigm, following an exposure to the ototoxic aminoglycoside, NEO, is depicted in FIG. 22.
This experimental paradigm was again repeated adding additional treatment groups where FGF-2 was optionally included in the culture medium at 2 ng/mL at P5, P7, and P9 for a subset of cultures.

“Also recorded” adds a separate entry of the source.

For the compound `O=c1sn(-c2cccc3ccccc23)c(=O)n1Cc1ccccc1` [TIDE, tideglusib], the “mitotic response (EdU-positive nuclei) in sensory epithelial region” value in assay [1] is recorded as “greater incidence of EdU-positive nuclei; also recorded: markedly greater mitotic response in the sensory epithelial region”. Moreover, in assay [2] (10 μM Tideglusib with 60 nM siHes1 NPs, relative to siHes1 NPs alone), the “siHes1 NP regenerative efficacy, middle turn” value was “statistically-significant increases”. Besides, in assay [2] (2 and 10 μM Tideglusib with 60 nM siHes1 NPs, relative to siHes1 NPs alone), the “siHes1 NP regenerative efficacy, basal turn” value was “statistically-significant increases”. The “HC numbers / densities with combined treatment” value in assay [2] (NEO-ablated OCs, 60 nM siHes1 NP plus Tideglusib 0.5, 2 or 10 μM, 6 d) is on record as “concentration-dependent enhancement of siHes1 NP-induced hair cell (HC) regeneration”. Besides, the “regenerative response (HC numbers)” value in assay [2] (Tideglusib alone (2 μM), NEO-ablated OCs) was “did not induce a statistically significant regenerative response”. For the same compound, the “siHes1 NP regenerative efficacy, mid-apical region” value in assay [2] (Tideglusib with 60 nM siHes1 NPs vs siHes1 NPs alone) is “no statistically-significant differences between the treatment groups”. In addition, in assay [3], the “Hair Cell Counts ± SEM, Mid-apical turn” value came out at 9.1 ± 1.6 and the “Hair Cell Counts ± SEM, Middle Turn” value was 2.8 ± 0.8.

Values taken from US11013752B2, “Combination therapies for inner ear sensory hair cell regeneration/replacement” (Hough Ear Institute, priority 2016, dated 2021).
